One test concerns the target T1, adrenergic α1A (Rattus norvegicus, UniProt P43140).
T1 construct: MDS Pharma Services (contract laboratory)
In words: radioligand displacement, adrenergic α1A. The class given is binding. To be noted: ligand 10 μM, duplicates. The procedure: (§1) The firm MDS Pharma Services [http://www.mdsps.com] carried out this test in duplicates at ligand concentration 10 μM by the displacement of the corresponding radioactive-labeled ligand. Test results, expressed in percent of ligand replacement (%), represented in Table 2 and in FIG. 1.

A further test addresses T2, serotonin 5-HT2B (Homo sapiens, UniProt P41595).
T2 construct: MDS Pharma Services (contract laboratory)
The test is described as follows: radioligand displacement, serotonin 5-HT2B. The class given is binding. To be noted: human being, ligand 10 μM, duplicates. The procedure: as §1
(In general: In a radioligand displacement assay an active substance lowers the binding of a labelled ligand.)

In the next test the target is T3, serotonin 5-HT2C (Homo sapiens, UniProt P28335).
T3 construct: MDS Pharma Services (contract laboratory)
The test is described as follows: radioligand displacement, serotonin 5-HT2C. Type of test: binding. To be noted: human being, ligand 10 μM, duplicates. The procedure: as §1

Another test concerns the target T4, serotonin 5-HT6 (Homo sapiens, UniProt P50406).
T4 construct: MDS Pharma Services (contract laboratory)
In words: radioligand displacement, serotonin 5-HT6. The class given is binding. As to conditions: serotonin 5-HT6, human being; ligand 10 μM, duplicates. The procedure:
as §1

The test system of a further test is sodium channel, site 2. In words: radioligand displacement, sodium channel site 2. Type of test: binding. As to conditions: site 2, rat, ligand 10 μM, duplicates. The procedure: as §1
The target of another test is T5, adrenergic α1B (Rattus norvegicus, UniProt P15823).
T5 construct: MDS Pharma Services (contract laboratory)
In words: radioligand displacement, adrenergic α1B. The class given is binding. As to conditions: ligand 10 μM, duplicates. Here is the method:
as §1

The next test addresses T6, dopamine D1 (Homo sapiens, UniProt P21728).
T6 construct: MDS Pharma Services (contract laboratory)
In words: radioligand displacement, dopamine D1. The class given is binding. As to conditions: dopamine D1, human being; ligand 10 μM, duplicates. Here is the method:
as §1

In test [1] the test system is calcium channel of L-type, benzothiazepine. The test is described as follows: radioligand displacement, L-type calcium channel (benzothiazepine). The class given is binding. To be noted: rat, ligand 10 μM, duplicates. The procedure: as §1
The target in the next test is T7, histamine H1 (Homo sapiens, UniProt P35367).
T7 construct: MDS Pharma Services (contract laboratory)
T7 sequence (P35367 whole entry): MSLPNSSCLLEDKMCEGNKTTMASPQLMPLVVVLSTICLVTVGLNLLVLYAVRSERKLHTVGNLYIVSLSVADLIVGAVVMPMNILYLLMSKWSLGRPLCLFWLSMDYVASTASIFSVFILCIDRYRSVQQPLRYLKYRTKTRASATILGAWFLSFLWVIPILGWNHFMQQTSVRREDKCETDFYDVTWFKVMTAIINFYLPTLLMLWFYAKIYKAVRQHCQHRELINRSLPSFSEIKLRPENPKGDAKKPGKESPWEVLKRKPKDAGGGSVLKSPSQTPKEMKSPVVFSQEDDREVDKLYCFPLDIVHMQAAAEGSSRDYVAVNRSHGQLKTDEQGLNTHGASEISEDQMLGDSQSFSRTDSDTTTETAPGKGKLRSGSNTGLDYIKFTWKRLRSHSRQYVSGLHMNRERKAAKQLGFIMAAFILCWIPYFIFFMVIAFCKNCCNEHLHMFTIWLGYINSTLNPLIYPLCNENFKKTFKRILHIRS
The test is described as follows: radioligand displacement, histamine H1. The class given is binding. As to conditions: histamine H1, human being; ligand 10 μM, duplicates. The procedure:
as §1

The target of test [2] is T8, dopamine transporter (DAT) (Homo sapiens, UniProt Q01959).
T8 construct: MDS Pharma Services (contract laboratory)
The test is described as follows: radioligand displacement, dopamine transporter. As to conditions: human being, ligand 10 μM, duplicates. The class given is binding. The procedure: as §1

Another test deals with T9, adrenergic β2 (Homo sapiens, UniProt P07550).
T9 construct: MDS Pharma Services (contract laboratory)
In words: radioligand displacement, adrenergic β2. To be noted: adrenergic β2, human being; ligand 10 μM, duplicates. The class given is binding. The procedure:
as §1

The target in another test is T10, sigma σ1 (Homo sapiens, UniProt Q99720).
T10 construct: MDS Pharma Services (contract laboratory)
T10 sequence (Q99720 whole entry): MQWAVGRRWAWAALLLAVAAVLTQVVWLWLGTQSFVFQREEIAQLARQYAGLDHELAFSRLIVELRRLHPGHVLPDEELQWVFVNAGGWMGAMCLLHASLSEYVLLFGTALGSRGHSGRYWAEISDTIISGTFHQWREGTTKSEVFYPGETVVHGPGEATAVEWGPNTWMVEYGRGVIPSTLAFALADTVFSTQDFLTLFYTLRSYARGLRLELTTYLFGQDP
The test is described as follows: radioligand displacement, sigma σ1. Type of test: binding. As to conditions: sigma σ1, human being; ligand 10 μM, duplicates. The procedure: as §1

The next test has as its target T11, dopamine D2S (Homo sapiens, UniProt P14416).
T11 construct: MDS Pharma Services (contract laboratory)
In words: radioligand displacement, dopamine D2S. The class given is binding. As to conditions: human being, ligand 10 μM, duplicates. Here is the method:
as §1

A further test deals with T12, dopamine D2L (Homo sapiens, UniProt P14416).
T12 construct: MDS Pharma Services (contract laboratory)
T12 sequence (P14416 whole entry): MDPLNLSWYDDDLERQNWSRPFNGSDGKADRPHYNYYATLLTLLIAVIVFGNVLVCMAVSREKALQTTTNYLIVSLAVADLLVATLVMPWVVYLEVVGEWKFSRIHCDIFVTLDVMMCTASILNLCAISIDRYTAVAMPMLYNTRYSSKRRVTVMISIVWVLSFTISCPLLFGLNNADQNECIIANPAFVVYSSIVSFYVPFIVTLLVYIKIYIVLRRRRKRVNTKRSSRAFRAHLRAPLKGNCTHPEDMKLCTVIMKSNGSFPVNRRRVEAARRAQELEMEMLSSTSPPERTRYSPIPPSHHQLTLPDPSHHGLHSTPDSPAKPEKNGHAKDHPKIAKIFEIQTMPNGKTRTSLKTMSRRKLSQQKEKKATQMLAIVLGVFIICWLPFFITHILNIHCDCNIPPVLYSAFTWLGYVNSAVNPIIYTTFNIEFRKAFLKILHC
The test is described as follows: radioligand displacement, dopamine D2L. The class given is binding. To be noted: human being, ligand 10 μM, duplicates. The procedure:
as §1

Another test has as its target T13, serotonin 5-HT1B (Homo sapiens, UniProt P28222).
T13 construct: MDS Pharma Services (contract laboratory)
In words: radioligand displacement, serotonin 5-HT1B. Type of test: binding. To be noted: human being, ligand 10 μM, duplicates. The procedure:
as §1

The next test deals with T14, serotonin 5-HT7 (Homo sapiens, UniProt P34969).
T14 construct: MDS Pharma Services (contract laboratory)
T14 sequence (P34969 whole entry): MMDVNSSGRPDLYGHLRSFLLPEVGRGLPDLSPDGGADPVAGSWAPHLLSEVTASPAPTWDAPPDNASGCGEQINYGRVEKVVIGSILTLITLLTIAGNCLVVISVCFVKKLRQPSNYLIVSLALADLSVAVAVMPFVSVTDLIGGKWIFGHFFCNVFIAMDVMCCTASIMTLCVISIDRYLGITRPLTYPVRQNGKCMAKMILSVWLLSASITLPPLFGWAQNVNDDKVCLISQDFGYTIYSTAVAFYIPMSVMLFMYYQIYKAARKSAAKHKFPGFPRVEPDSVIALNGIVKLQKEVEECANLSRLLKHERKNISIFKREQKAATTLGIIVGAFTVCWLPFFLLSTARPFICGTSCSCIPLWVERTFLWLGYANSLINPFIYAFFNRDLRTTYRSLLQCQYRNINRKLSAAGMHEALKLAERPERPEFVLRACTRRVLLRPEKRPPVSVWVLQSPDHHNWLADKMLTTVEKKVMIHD
The test is described as follows: radioligand displacement, serotonin 5-HT7. The class given is binding. As to conditions: serotonin 5-HT7, human being; ligand 10 μM, duplicates. Here is the method:
as §1

The target in the next test is T15, dopamine D3 (Homo sapiens, UniProt P35462).
T15 construct: MDS Pharma Services (contract laboratory)
In words: radioligand displacement, dopamine D3. As to conditions: dopamine D3, human being; ligand 10 μM, duplicates. The class given is binding. The procedure: as §1

Another test relates to male mice of BALB/c line. The test is described as follows: Mice Behavior in the Elevated Plus Maze. Type of test: in vivo. To be noted: 5 minutes, FIG. 8-10. Here is the method: The length of maze arms makes 30 cm, the width 5 cm, height of walls 15 cm. Two opposite arms are closed from sides and end walls with prasparent walls, the two others are lighted and opened. A mouse was placed in the maze center and during 5 minutes the number of opened and closed arm entries and the time spent by the animals in opened and closed arms were registered. On this evidence indexes of opened arms preference were calculated as a ratio of the number of opened arm entries and also duration of their stay in the opened arms to the total number of entries into all of arms and duration of stay in them. Being in normal state animals avoid opened arms (index of preference makes 0.2-0.3). Compounds with anxiolytic activity (tranquilizing activity) run this value up to 0.5-0.6 and more, and also decrease the number of defecations without changing overall physical activity (general number of arm entries).

The target in the next test is T16, sigma σ2 (Rattus norvegicus, UniProt Q5U3Y7).
T16 construct: MDS Pharma Services (contract laboratory)
In words: radioligand displacement, sigma σ2. The class given is binding. To be noted: ligand 10 μM, duplicates. Here is the method:
as §1

The next test addresses T17, histamine H2 (Homo sapiens, UniProt P25021).
T17 construct: MDS Pharma Services (contract laboratory)
In words: radioligand displacement, histamine H2. To be noted: histamine H2, human being; ligand 10 μM, duplicates. Type of test: binding. Here is the method:
as §1

Another test concerns the target T18, adrenergic α2A (Homo sapiens, UniProt P08913).
T18 construct: MDS Pharma Services (contract laboratory)
In words: radioligand displacement, adrenergic α2A. The class given is binding. To be noted: human being, ligand 10 μM, duplicates. Here is the method:
as §1

Test [3] deals with T19, norepinephrine transporter (NET) (Homo sapiens, UniProt P23975).
T19 construct: MDS Pharma Services (contract laboratory)
T19 sequence (P23975 whole entry): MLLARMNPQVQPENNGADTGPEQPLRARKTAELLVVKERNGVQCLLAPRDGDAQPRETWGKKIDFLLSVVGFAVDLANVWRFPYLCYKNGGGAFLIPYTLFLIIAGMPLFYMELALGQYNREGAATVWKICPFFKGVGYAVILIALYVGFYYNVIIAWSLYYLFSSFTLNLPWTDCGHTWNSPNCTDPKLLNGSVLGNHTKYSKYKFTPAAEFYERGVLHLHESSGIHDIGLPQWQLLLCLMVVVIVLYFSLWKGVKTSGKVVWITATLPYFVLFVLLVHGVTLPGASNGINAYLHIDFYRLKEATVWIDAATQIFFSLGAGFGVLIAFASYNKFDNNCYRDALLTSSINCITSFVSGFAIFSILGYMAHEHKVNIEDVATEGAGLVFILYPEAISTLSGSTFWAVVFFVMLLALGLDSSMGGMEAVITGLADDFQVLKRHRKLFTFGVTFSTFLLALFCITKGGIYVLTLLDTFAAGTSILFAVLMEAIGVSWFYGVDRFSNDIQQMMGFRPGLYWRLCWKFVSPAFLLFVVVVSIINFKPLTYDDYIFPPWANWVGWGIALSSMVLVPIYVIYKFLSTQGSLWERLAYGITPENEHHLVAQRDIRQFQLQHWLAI
The test is described as follows: radioligand displacement, norepinephrine transporter. The class given is binding. As to conditions: human being, ligand 10 μM, duplicates. The procedure:
as §1

Marks after values point to notes of the source that are not given here.

Here are results for one molecule from patent US20110136853A1, “LIGAND WITH A BROAD SPECTRUM OF PHARMACOLOGICAL ACTIVITY, A PHARMACEUTICAL COMPOSITION, A MEDICINAL AGENT AND A METHOD OF TREATMENT” (priority 2008, published 2011).

T17 sequence (P25021 whole entry): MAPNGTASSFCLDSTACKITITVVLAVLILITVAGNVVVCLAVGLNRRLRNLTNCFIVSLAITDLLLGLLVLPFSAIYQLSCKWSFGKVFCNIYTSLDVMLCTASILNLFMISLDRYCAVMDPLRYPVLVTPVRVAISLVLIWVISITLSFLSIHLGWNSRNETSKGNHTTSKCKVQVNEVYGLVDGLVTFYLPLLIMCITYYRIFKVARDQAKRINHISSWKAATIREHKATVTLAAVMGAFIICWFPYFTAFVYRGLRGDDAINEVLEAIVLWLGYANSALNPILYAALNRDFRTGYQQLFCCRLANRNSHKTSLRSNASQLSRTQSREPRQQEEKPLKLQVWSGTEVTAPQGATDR
T1 sequence (P43140 whole entry): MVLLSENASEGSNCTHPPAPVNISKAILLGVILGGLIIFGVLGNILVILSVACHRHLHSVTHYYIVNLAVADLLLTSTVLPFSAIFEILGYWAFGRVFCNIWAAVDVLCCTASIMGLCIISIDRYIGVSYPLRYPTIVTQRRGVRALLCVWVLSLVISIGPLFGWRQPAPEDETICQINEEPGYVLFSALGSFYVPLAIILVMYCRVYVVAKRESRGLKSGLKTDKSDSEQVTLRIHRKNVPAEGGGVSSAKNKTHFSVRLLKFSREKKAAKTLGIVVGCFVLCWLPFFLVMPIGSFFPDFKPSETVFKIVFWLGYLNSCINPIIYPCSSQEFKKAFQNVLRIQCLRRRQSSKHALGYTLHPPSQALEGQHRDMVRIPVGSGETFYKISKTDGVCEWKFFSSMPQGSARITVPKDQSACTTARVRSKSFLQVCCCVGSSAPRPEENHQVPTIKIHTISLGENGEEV
T6 sequence (P21728 whole entry): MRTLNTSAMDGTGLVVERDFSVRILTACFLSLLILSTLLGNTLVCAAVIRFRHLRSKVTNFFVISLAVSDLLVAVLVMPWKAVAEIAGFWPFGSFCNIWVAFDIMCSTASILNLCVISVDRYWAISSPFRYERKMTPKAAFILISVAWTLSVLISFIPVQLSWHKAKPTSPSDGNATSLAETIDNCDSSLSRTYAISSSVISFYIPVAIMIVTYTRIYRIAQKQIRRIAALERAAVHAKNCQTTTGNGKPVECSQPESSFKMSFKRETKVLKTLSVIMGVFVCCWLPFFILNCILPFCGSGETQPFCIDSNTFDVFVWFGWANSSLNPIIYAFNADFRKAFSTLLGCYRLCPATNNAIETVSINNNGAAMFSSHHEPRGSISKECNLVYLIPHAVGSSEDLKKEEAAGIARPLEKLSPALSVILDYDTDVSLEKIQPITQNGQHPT
T11 sequence (P14416 1-414 isoform P14416-2): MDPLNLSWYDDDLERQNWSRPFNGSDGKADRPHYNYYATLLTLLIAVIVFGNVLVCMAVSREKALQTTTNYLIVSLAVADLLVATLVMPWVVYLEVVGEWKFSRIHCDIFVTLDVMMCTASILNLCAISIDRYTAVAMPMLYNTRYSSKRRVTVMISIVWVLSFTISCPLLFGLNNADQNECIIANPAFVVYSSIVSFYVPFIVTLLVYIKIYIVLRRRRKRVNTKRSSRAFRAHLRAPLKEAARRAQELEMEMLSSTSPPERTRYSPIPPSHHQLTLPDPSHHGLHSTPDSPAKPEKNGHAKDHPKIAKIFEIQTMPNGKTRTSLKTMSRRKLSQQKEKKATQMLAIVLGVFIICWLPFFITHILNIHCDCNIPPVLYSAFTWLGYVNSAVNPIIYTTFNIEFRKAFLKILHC
T13 sequence (P28222 whole entry): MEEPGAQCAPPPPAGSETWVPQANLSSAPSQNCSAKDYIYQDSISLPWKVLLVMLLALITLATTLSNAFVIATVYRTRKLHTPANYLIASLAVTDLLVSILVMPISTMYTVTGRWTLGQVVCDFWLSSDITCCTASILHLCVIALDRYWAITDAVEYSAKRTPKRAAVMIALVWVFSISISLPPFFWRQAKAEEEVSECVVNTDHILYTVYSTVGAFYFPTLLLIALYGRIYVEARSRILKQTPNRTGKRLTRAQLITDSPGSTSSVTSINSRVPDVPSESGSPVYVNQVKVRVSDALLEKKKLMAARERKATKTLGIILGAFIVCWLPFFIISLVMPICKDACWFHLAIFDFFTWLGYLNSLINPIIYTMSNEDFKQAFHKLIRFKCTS
T2 sequence (P41595 whole entry): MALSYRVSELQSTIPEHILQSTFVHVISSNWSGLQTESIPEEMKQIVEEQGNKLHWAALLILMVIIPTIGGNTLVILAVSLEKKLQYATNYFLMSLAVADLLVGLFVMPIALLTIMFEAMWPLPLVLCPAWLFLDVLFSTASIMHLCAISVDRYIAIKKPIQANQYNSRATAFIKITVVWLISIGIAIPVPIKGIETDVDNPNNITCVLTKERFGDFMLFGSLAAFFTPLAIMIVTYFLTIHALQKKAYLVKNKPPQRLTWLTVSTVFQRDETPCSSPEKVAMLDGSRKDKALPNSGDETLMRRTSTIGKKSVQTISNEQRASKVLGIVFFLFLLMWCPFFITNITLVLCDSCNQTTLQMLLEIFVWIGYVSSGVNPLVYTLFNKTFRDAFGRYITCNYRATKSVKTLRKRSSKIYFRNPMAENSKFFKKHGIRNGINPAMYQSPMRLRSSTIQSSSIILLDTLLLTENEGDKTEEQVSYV

`CN1CCc2c(c3ccccc3n2Cc2ccccc2)C1` [formula 1, 3-methyl-9-benzyl-1,2,3,4-tetrahydrocarboline naphthalene-1,5-disulfonate]: the “% of radioactive-labeled ligand replacement” value at adrenergic α1A was determined as 70%; on serotonin 5-HT2B, 52%; at serotonin 5-HT2C, 79%; on serotonin 5-HT6 it was 79%; in the test with sodium channel, site 2, 93%; at adrenergic α1B, 70%. For the same molecule, the “% of radioactive-labeled ligand replacement” value is listed as 62% on dopamine D1; 65% in test [1]; 97% on histamine H1; 99% in test [2]; 76% at adrenergic β2; 75% on sigma σ1. The “% of radioactive-labeled ligand replacement” value on dopamine D2S is reported as 60%; on dopamine D2L it was 51%; at serotonin 5-HT1B, 64* %; on serotonin 5-HT7 it was 76%; on dopamine D3, 80%; on sigma σ2 it was 52%. Moreover, the “% of radioactive-labeled ligand replacement” value at histamine H2 was 97%; on adrenergic α2A, 100%; in test [3] it was 67%. Also, in the test with male mice of BALB/c line, the “anxiolytic (tranquilizing) action” value is “anxiolytic (tranquilizing) activity comparable with the activity of Buspirone and Lorazepam”.
